pIC50: −log10 of the molar value. Read-outs that look alike come from different tables or passages of the source.
Legend:
K48-Ub (ubiquitin) = K48-Ub (ubiquitin) biomarker in patient blood samples; format: in vivo, human; conditions: cohorts 4 and 5; two of 5 patients showed changes
Method: Two biomarkers were assessed in patients from cohorts 4 and 5. K48-Ub (ubiquitin) and Activated Caspase 3 biomarkers were analyzed from 5 patient blood samples.

HCC1937 (Breast) = experiment: Cell Titer-Glo viability: single agent IC50 and Compound 1 + PARP inhibitor matrix (Bliss); format: cell-based; conditions: Homo sapiens, single agent, read-out: Absolute IC50
Method: (§1) The PARP inhibitors used for the study were talazoparib, olaparib and niraparib. […] was used as a reference control. […] For each drug agent on its own, IC50 values in each cell line were determined. Interactions of the combinations of Compound 1 and each PARP inhibitor was assessed as follows: […] Cisplatin and culture media were used as positive and negative control, respectively. The combination activities were assessed using CrownSyn software to determine synergy scores by Bliss Independence and Loewe additivity methods. […] Synergy scores calculated by both Bliss independence model and Loewe additivity model (see Greco, […]., Poch, G., Suhnel, J., Kundi, M., & Bodeker, W. (1992). Consensus on concepts and terminology for combined-action assessment: the […] agreement. […] Without being bound by theory, the Bliss independence model is often applied to asses synergy for non-interacting drugs that elicit their responses independently, e.g., by targeting separate pathways, whereas the Loewe additivity model may be more compatible where both drugs have similar modes of action on the same targets or pathways.

HCC1806 (Breast) = experiment: as above; format: cell-based; conditions: Homo sapiens, 72 h, single agent, read-out: Absolute IC50
Method: as §1

SK-OV-3 (Ovary) = experiment: as above; format: cell-based; conditions: Homo sapiens, single agent, read-out: Absolute IC50
Method: as §1

DU4475 (Breast) = experiment: as above; format: cell-based; conditions: Homo sapiens, DU-4475, 72 h, single agent, read-out: Absolute IC50
Method: as §1

IGR-OV1 (Ovary) = experiment: as above; format: cell-based; conditions: Homo sapiens, IGROV-1, 72 h, single agent, read-out: Absolute IC50
Method: as §1

[1] = tested on: DoTc2 4510 (Uterus/Cervix); experiment: as above; format: cell-based; conditions: Homo sapiens, single agent, read-out: Absolute IC50
Method: as §1

Capan-1 (Pancreas) = experiment: as above; format: cell-based; conditions: Homo sapiens, 72 h, single agent, read-out: Absolute IC50
Method: as §1

MX-1 (Breast) = experiment: as above; format: cell-based; conditions: single agent, read-out: Absolute IC50
Method: as §1

HCC1395 (Breast) = experiment: as above; format: cell-based; conditions: Homo sapiens, 72 h, single agent, read-out: Absolute IC50
Method: as §1

OVCAR-8 (Ovary) = experiment: as above; format: cell-based; conditions: Homo sapiens, 72 h, single agent, read-out: Absolute IC50
Method: as §1

MV4; 11 cell line = experiment: Cell Titer-Glo viability, fixed agent + dose response agent combinations; format: cell-based, human; conditions: 11; for pIC50: Homo sapiens, MV4-11, MV4, read-out: IC50; for Combination:Monotherapy IC50 Ratio: MV4
Method: (§2) The additional therapeutic agents for this example were azacitidine (Cayman Chemical Cat No. 11164), decitabine (Sigma Cat No. A3656) and venetoclax (InvivoChem Cat. No. V0001).
(§3) Cell Culture: Three human acute myeloid leukemia tumor cell lines were used in this study: HL60, MV4;11 and MOLM-13. HL60 and MV4;11 were grown in IMDM base media with 20% and 10% FBS, respectively. MOLM-13 was grown in RPMI 1640 base media with 20% FBS. All culture media contained 2 mM glutamine, 100 units/mL sodium penicillin G, […] gentamicin, and 100 µg/mL streptomycin sulfate. The tumor cells were cultured in tissue culture flasks in a humidified incubator at 37° C., in an atmosphere of 5% CO2 and 95% air. Assay: Tumor cells were seeded in duplicate in a volume of 100 µL/well of media into 96-well micro-culture plates at initial densities low enough to allow for several population doublings (typically three to five) during the indicated incubation period. After a 24 hour incubation, test agents were added to each well. After 72 hours of culture with test articles, cell viability was determined using the Cell Titer-Glo® (Promega G7571) assay. Briefly, Cell Titer-Glo® (Promega G7571) reagents were equilibrated at room temperature for 30 minutes; 100 μL per well was added at endpoint (72 hours). Plates were gently shaken for two minutes and then incubated at room temperature for ten minutes prior to reading luminescence on the BMG Clariostar Plus microplate reader.
(§4) An IC50 ratio for each combination was calculated from the ratio of the combination IC50 as compared to the applicable no fixed agent (vehicle) control.

MOML-13 cell line = experiment: as above; format: cell-based, human; conditions: MOML-13; for pIC50: Homo sapiens, read-out: IC50
Method: as §2, §3, §4

HL-60 cell line = experiment: as above; format: cell-based, human; conditions: for Combination:Monotherapy IC50 Ratio: HL-60; for pIC50: Homo sapiens, HL-60, HL-60, read-out: IC50
Method: as §2, §3, §4

[2] = fixed agent Azacitidine - 500 nM
[3] = fixed agent Azacitidine - 3150 nM
[4] = fixed agent Decitabine - 215 nM
[5] = fixed agent Venetoclax + Azacitidine - 20 nM
[6] = fixed agent Venetoclax + Azacitidine - 50 nM
[7] = fixed agent Azacitidine - 105 nM
[8] = fixed agent Azacitidine - 850 nM
[9] = fixed agent Decitabine - 2.5 nM
[10] = fixed agent Decitabine - 8.5 nM
[11] = fixed agent Venetoclax + Azacitidine - 6.5 nM
[12] = fixed agent Azacitidine - 5750 nM
[13] = fixed agent Azacitidine - 9800 nM
[14] = fixed agent Decitabine - 175 nM
[15] = fixed agent Decitabine - 1700 nM
[16] = fixed agent Venetoclax + Azacitidine - 85 nM
[17] = fixed agent Venetoclax + Azacitidine - 475 nM

Compound: Cc1cc2c(C(N)=O)cccc2n1-c1nc2c(c(NCc3ccccc3)n1)CCCN2 [Compound 1, 1-(4-(benzylamino)-5,6,7,8-tetrahydropyrido[2,3-d]pyrimidin-2-yl)-2-methyl-1H-indole-4-carboxamide]
- K48-Ub (ubiquitin) biomarker, best fold change after treatment (K48-Ub (ubiquitin)): approximately 3.5 fold
- pIC50 (HCC1937 (Breast)): 6.25
- pIC50 (HCC1806 (Breast)): 6.36
- pIC50 (SK-OV-3 (Ovary)): 5.75
- pIC50 (DU4475 (Breast)): 6.46
- pIC50 (IGR-OV1 (Ovary)): 6.55
- pIC50 [1]: 6.29
- pIC50 (Capan-1 (Pancreas)): 6.39
- pIC50 (MX-1 (Breast)): 6.39
- pIC50 (HCC1395 (Breast)): 6.70
- pIC50 (OVCAR-8 (Ovary)): 6.70
- pIC50 (MV4; 11 cell line; [2]): 6.94
- pIC50 (MV4; 11 cell line; [3]): 6.93
- pIC50 (MV4; 11 cell line; fixed agent Decitabine - 30 nM): 6.93
- pIC50 (MV4; 11 cell line; [4]): 7.04
- pIC50 (MV4; 11 cell line; [5]): 6.79
- pIC50 (MV4; 11 cell line; [6]): 6.93
- Combination:Monotherapy IC50 Ratio (MV4; 11 cell line; [2]): 0.46
- Combination:Monotherapy IC50 Ratio (MV4; 11 cell line; [3]): 0.47
- Combination:Monotherapy IC50 Ratio (MV4; 11 cell line; fixed agent Decitabine - 30 nM): 0.47
- Combination:Monotherapy IC50 Ratio (MV4; 11 cell line; [4]): 0.36
- Combination:Monotherapy IC50 Ratio (MV4; 11 cell line; [5]): 0.65
- Combination:Monotherapy IC50 Ratio (MV4; 11 cell line; [6]): 0.47
- pIC50 (MOML-13 cell line; [7]): 7.07
- pIC50 (MOML-13 cell line; [8]): 7.07
- pIC50 (MOML-13 cell line; [9]): 6.92
- pIC50 (MOML-13 cell line; [10]): 7.19
- pIC50 (MOML-13 cell line; [11]): 6.81
- pIC50 (MOML-13 cell line; [5]): 6.95
- Combination:Monotherapy IC50 Ratio (MOML-13 cell line; [7]): 0.39
- Combination:Monotherapy IC50 Ratio (MOML-13 cell line; [8]): 0.39
- Combination:Monotherapy IC50 Ratio (MOML-13 cell line; [9]): 0.56
- Combination:Monotherapy IC50 Ratio (MOML-13 cell line; [10]): 0.30
- Combination:Monotherapy IC50 Ratio (MOML-13 cell line; [11]): 0.71
- Combination:Monotherapy IC50 Ratio (MOML-13 cell line; [5]): 0.52
- Combination:Monotherapy IC50 Ratio (HL-60 cell line; [12]): 1.02
- Combination:Monotherapy IC50 Ratio (HL-60 cell line; [13]): 0.85
- Combination:Monotherapy IC50 Ratio (HL-60 cell line; [14]): 0.96
- Combination:Monotherapy IC50 Ratio (HL-60 cell line; [15]): 1.06
- Combination:Monotherapy IC50 Ratio (HL-60 cell line; [16]): 0.84
- Combination:Monotherapy IC50 Ratio (HL-60 cell line; [17]): 0.84
- pIC50 (HL-60 cell line; [12]): 6.51
- pIC50 (HL-60 cell line; [13]): 6.59
- pIC50 (HL-60 cell line; [14]): 6.53
- pIC50 (HL-60 cell line; [15]): 6.49
- pIC50 (HL-60 cell line; [16]): 6.59
- pIC50 (HL-60 cell line; [17]): 6.59

— US20250049800A1, “VCP/p97 INHIBITOR FOR THE TREATMENT OF CANCER” (CASI Pharmaceuticals, Inc., priority 2021, published 2025)
